Results from patent publication US10233221B2, “Peptide having eight amino acid sequences derived from cage and retaining anticancer activity and activity to promote anticancer drug sensitivity of anticancer drug-resistant cancer cells” (L-Base Co., Ltd., priority 2014, dated 2019).
Where no end group is shown, it is not given here. [ ]: non-standard residue; d: D form. The star is where a group is joined. FITC = O=C1OC2(c3ccc(O)cc3Oc3cc(O)ccc32)c2ccc(NC(=S)*)cc21

Columns and labels:
Malme3M^R tumor tissues = experiment: Tumor-specific migration (in vivo homing); parameters: species or system immunodeficient mice; settings: 12 hours after tail vein injection; in vivo imaging of extracted tissues
Description: In order to examine that the AQTGTGKT (SEQ ID NO: 1 synthesized from L-amino acid) peptide is a tumor-specific peptide, experiments were carried out by a known method using FITC-AQTGTGKT (FITC-SEQ ID NO: 1) and anticancer drug-resistant cell lines and immunodeficient mice.
Celastrol-resistant melanoma cell line (Malme3M^R) having high expression of CAGE was injected into immunodeficient mice by a known method to induce tumors, and then 12 hours after FITC-AQTGTGKT (FITC-SEQ ID NO: 1) was injected into the tail vein, normal tissues (brain, heart, spleen, Liver, lung, etc.) and tumor tissues were extracted and examined using a small in vivo imaging system.

[1] = tested on: GSK3β ser9 and Cyclin D1 in Malme3M^R; experiment: Western blotting of GSK3β ser9 and Cyclin D1; assay type: cell-based
Description: (§1) In order to examine the intercellular migration and action mechanisms of AQTGTGKT (SEQ ID NO: 1 synthesized from L-amino acid) and D-AQTGTGKT (SEQ ID NO: 1 synthesized from D-amino acid) peptides, each of the peptides was prepared in a form of being conjugated to fluorescein isothiocyanate (FITC), and used to perform transfection, immunofluorescence, immunoprecipitation, and western blotting by known methods.
(§2) The same cell lines were transfected with AQTGTGKT (SEQ ID NO: 1 synthesized from L-amino acid) or FITC-AQTGTGKT (FITC-SEQ ID NO: 1) peptide, and then subjected to immunoprecipitation and western blotting.
(§3) In addition, the cell lines were transfected with AQTGTGKT (SEQ ID NO: 1 synthesized from L-amino acid) or D-AQTGTGKT (SEQ ID NO: 1 synthesized from D-amino acid) peptide, and then subjected to immunoprecipitation and western blotting.

[2] = tested on: GSK3β ser9 and Cyclin D1 in SNU387^R; experiment: Western blotting of GSK3β ser9 and Cyclin D1; assay type: cell-based
Description: as §1, §2, §3

SNU387^R = experiment: Intracellular migration, fluorescent microscope; assay type: cell-based; settings: 24 hours after transfection
Description: as §1
(§4) Celastrol-resistant liver cancer cell line (SNU387^R) and melanoma cell line (Malme3M^R) having high expression of CAGE were transfected with FITC-AQTGTGKT (FITC-SEQ ID NO: 1) peptide, and after 24 hours, the cell lines were examined under a fluorescent microscope.

Malme3M^R = experiment: Intracellular migration, fluorescent microscope; assay type: cell-based; settings: 24 hours after transfection
Description: as §1, §4

[3] = target: T1, CAGE and GSK3β proteins in Malme3M^R (Homo sapiens, UniProt Q86TM3); experiment: Immunoprecipitation of CAGE and GSK3β; assay type: cell-based
T1 construct: Celastrol-resistant liver cancer cell line (SNU387^R) and melanoma cell line (Malme3M^R) having high expression of CAGE; endogenous in cells; host or cells: Malme3M^R (Celastrol-resistant melanoma cell line)
T1 sequence (Q86TM3 whole entry): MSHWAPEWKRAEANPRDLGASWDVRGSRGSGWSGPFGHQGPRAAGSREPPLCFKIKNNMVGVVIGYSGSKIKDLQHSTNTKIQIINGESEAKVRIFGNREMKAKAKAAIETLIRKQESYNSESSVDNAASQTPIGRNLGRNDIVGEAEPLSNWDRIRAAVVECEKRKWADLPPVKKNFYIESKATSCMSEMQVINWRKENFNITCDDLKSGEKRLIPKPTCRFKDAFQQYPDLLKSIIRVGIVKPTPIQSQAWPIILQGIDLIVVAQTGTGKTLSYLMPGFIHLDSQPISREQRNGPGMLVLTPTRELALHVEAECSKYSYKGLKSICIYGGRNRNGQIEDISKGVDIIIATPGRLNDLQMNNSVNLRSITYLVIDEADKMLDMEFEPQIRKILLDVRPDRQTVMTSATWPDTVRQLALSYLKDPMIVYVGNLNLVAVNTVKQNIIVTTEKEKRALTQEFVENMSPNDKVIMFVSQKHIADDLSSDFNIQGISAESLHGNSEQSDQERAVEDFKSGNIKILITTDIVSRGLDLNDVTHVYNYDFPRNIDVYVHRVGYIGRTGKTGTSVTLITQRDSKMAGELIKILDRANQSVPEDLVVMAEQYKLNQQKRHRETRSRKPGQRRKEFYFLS
Description: as §1, §3

[4] = target: T2, CAGE and GSK3β proteins in SNU387^R (Homo sapiens, UniProt Q86TM3); experiment: Immunoprecipitation of CAGE and GSK3β; assay type: cell-based
T2 construct: Celastrol-resistant liver cancer cell line (SNU387^R) and melanoma cell line (Malme3M^R) having high expression of CAGE; endogenous in cells; host or cells: SNU387^R (Celastrol-resistant liver cancer cell line)
T2 sequence (Q86TM3 whole entry): as above
Description: as §1, §3

[5] = tested on: Taxol-resistant melanoma cell line (Malme3M^R-Taxol); experiment: Wound-healing migration assay; assay type: cell-based; settings: 24-48 hours
Description: (§5) In order to examine the effects of AQTGTGKT (SEQ ID NO: 1 synthesized from L-amino acid) and D-AQTGTGKT (SEQ ID NO: 1 synthesized from D-amino acid) peptides on the migration, invasiveness, and angiogenesis inducing ability of anticancer drug-resistant cell line, the invasion assay, wound-healing migration assay, and intravital microscopy were carried out by conventional methods using Celastrol-resistant melanoma cell line (Malme3M^R).
(§6) Celastrol-resistant melanoma cell line (Malme3MR) or Taxol-resistant melanoma cell line (Malme3M^R-Taxol) was cultured in 24-well culture dishes, and wounded using a 1 ml tip by a conventional method, and then the migrating cells were counted for 24-48 hours.

[6] = tested on: Celastrol-resistant melanoma cell line (Malme3MR); experiment: Wound-healing migration assay; assay type: cell-based; settings: 24-48 hours
Description: as §5, §6

[7] = tested on: CAGE-GSK3β, GSK3β ser9, Cyclin D1 in lung tissues; experiment: Immunoprecipitation and western blotting of lung tissues; assay type: in vivo, nude mouse
Text: After the protein was collected from the lung tissues by a conventional method, the protein expression and activation patterns were examined through immunoprecipitation and western blotting.

[8] = tested on: CAGE-GSK3β, GSK3β ser9, cyclin D1, MDR1 in tumor tissues; experiment: Western blotting and immunoprecipitation of tumor tissues; assay type: in vivo, nude mouse
Description: After the above experiments, the protein expression and activation were examined. The tumor tissues were disrupted by liquid nitrogen according to a known method, reacted with a dissolution buffer on ice for 30 minutes, and centrifuged at 13,000 rpm for 15 minutes, and then the supernatant solution was collected as a protein sample. Thereafter, this protein sample was subjected to western blotting and immunoprecipitation to examine the protein expression and activation and the interconnection of proteins.

[9] = tested on: Celastrol-resistant liver cancer cell line (SNU387^R); experiment: Western blotting of PARP and FAK cleavage; assay type: cell-based; settings: 1 μM peptide 24 hours, then 1 μM and 10 μM Celastrol and Taxol 1 hour, vs cell lines without peptide
Description: (§7) In order to examine the effects of AQTGTGKT (SEQ ID NO: 1 synthesized from L-amino acid) or D-AQTGTGKT (SEQ ID NO: 1 synthesized from D-amino acid) peptides on the anticancer drug resistance of cancer cells, MTT assay and western blotting were conducted by a known method.
(§8) Liver cancer cell line (SNU387^R) and melanoma cell line (Malme3M^R), which show resistance to Celastrol as an anticancer drug, were transfected with 1 μM AQTGTGKT (SEQ ID NO: 1 synthesized from L-amino acid) or D-AQTGTGKT (SEQ ID NO: 1 synthesized from D-amino acid) peptide for 24 hours, respectively, and then treated with 1 μM and 10 μM Celastrol and Taxol for 1 hour.

[10] = tested on: Celastrol-resistant melanoma cell line (Malme3M^R); experiment: Western blotting of PARP and FAK cleavage; assay type: cell-based; settings: 1 μM peptide 24 hours, then 1 μM and 10 μM Celastrol and Taxol 1 hour, vs cell lines without peptide
Description: as §7, §8

Malme3M^R tumor = experiment: Tumorigenicity of anticancer drug-resistant cell line in nude mouse; assay type: in vivo; settings: 10 μg/mouse tail vein, 6 times every 3 days
Description: In order to examine that the AQTGTGKT (SEQ ID NO: 1 synthesized from L-amino acid) is a tumor-specific peptide, experiments were carried out by a known method using an anticancer drug-resistant cell line and an immune-deficient mouse.
Celastrol-resistant melanoma cell line (Malme3M^R) having high expression of CAGE was injected into the side of a nude mouse at 1×10^6 cells. When a tumor was grown to have a measurable tumor size, the tumor size was measured using a digital gauge at regular intervals, and the tumor size was calculated using a known formula (widest length×shortest length×0.5).
After the tumor was induced by the above method, AQTGTGKT (SEQ ID NO: 1 synthesized from L-amino acid) peptide (10 μg/mouse) was injected into the tail vein alone or in combination with Celastrol or Taxol anticancer drug in a total of 6 times every 3 days for 2 weeks, while the size of the tumor was measured.

[11] = tested on: Malme3M^R tumor metastasis; experiment: Lung metastasis of anticancer drug-resistant cell line in nude mouse; assay type: in vivo; settings: 10 μg/mouse tail vein, 6 times every 3 days from day 4
Description: In order to examine the effect of AQTGTGKT (SEQ ID NO: 1 synthesized from L-amino acid) peptide on tumor metastatic ability of an anticancer drug-resistant cell line, long metastasis was carried out using the anticancer drug-resistant cell line and an immunodeficient mouse by a known method.
Celastrol-resistant melanoma cell line (Malme3M^R) having high expression of CAGE was injected into the tail vein of a nude mouse at 1×10^6 cells, and then the metastasis of a tumor into the lung was induced for 2-3 weeks. From day 4 after tumor cell injection, AQTGTGKT (SEQ ID NO: 1 synthesized from L-amino acid) peptide (10 μg/mouse) was injected into the tail vein in a total of 6 times every 3 days, and the lung tissue was excised and the number of tumor nodules was measured by a known method.

[12] = tested on: angiogenesis inducing ability of Malme3M^R; experiment: Angiogenesis, intravital microscopy; assay type: in vivo; settings: conditioned media of treated Malme3M^R mixed with Matrigel, injected into BALB/C mice
Description: as §5
After Celastrol-resistant melanoma cell line (Malme3M^R) was treated with AQTGTGKT (SEQ ID NO: 1 synthesized from L-amino acid) or D-AQTGTGKT (SEQ ID NO: 1 synthesized from D-amino acid) peptide, the obtained conditioned media were mixed with Matrigel and then injected into BALB/C mice, and then the mice were injected with FITC-dextran to examine the effect on angiogenesis using intravital microscopy.

interconnection of CAGE and GSK3β proteins [3] | interconnection of CAGE and GSK3β proteins [4] | Substance | dephosphorylation of GSK3β ser9 [1] | expression of Cyclin D1 [1] | dephosphorylation of GSK3β ser9 [2] | expression of Cyclin D1 [2] | cell migration [5] | cell migration [6] | cleavage of PARP and FAK proteins [9] | cleavage of PARP and FAK proteins [10] | angiogenesis inducing ability [12] | also measured
– | – | FITC-AQTGTGKT ({FITC}-AQTGTGKT; listed as Homo sapiens) [AQTGTGKT peptide conjugated to fluorescein isothiocyanate (FITC)] | inhibited | inhibited | inhibited | inhibited | – | – | – | – | – | migration to tumor tissues vs normal tissues (Malme3M^R tumor tissues): migrated specifically to tumor tissues; migration of peptide into the cells (SNU387^R): migrated into the cells; migration of peptide into the cells (Malme3M^R): migrated into the cells
inhibited | inhibited | AQTGTGKT (listed as Homo sapiens) | inhibited | inhibited | inhibited | inhibited | inhibited | inhibited | significantly observed | significantly observed | remarkably reduced | dephosphorylation of GSK3β ser9 [7]: inhibited; expression of Cyclin D1 [7]: inhibited; interconnection of CAGE and GSK3β proteins [7]: inhibited; GSK3β ser9 dephosphorylation [8]: reductions; cyclin D1 expression [8]: reductions; expression of MDR1 [8]: inhibited; interconnection of CAGE and GSK3β proteins [8]: inhibited; tumorigenicity (tumor size) (Malme3M^R tumor; alone): reduced; anticancer drug resistance (tumor size) (Malme3M^R tumor; in combination with Celastrol or Taxol): reduced; tumor metastasis (number of lung tumor nodules) [11]: reduced
inhibited | inhibited | D-AQTGTGKT ([dA][dQ][dT]G[dT]G[dK][dT]; listed as Homo sapiens) | inhibited | inhibited | inhibited | inhibited | inhibited | inhibited | significantly observed | significantly observed | remarkably reduced | –
